Like-named read-outs stand apart in the source and are kept apart here.
Columns and labels:
LH [1] = conditions: in vivo; cited from earlier work
LH [2] = conditions: exogenous GnRH; cited from earlier work
cows [3] = conditions: cited from earlier work
[4] = literature study; cited from earlier work
[5] = Progesterone solubility trials; assay type: physicochemical
Protocol: The purpose of the formulation studies was to establish a product vehicle that was suitable for solubilisation of a relatively high concentration of Progesterone but in which Gonadorelin would be stable. […] Low solubility of Progesterone (even in organic solvents) further limited the choice of injectable organic vehicles.
Further Solubility Trials were conducted as follows: […]

[6] = Progesterone solubility and precipitation at low temperature (2-8° C.); assay type: physicochemical; conditions: solubility study; most appropriate combination
Protocol: Since addition of acids reduced the amount of NMP available for dissolution of Progesterone, samples prepared with different acids were refrigerated at 2-8° C. to investigate progesterone solubility and the occurrence of precipitation at low temperatures. The appearance of crystals in samples prepared with formic and hydrochloric acid was obvious after several hours of refrigeration. Crystals appeared after 1-2 days in samples prepared with phosphoric acid. FTIR testing confirmed that the precipitate was crystalline progesterone, which was difficult to redissolve due to the crystalline form of the precipitate. At this stage a further search for vehicle that would provide sufficient progesterone solubility at low temperatures was conducted. […] A solubility study confirmed that the most appropriate combination was NMP+water+phosphoric acid with progesterone amount not exceeding 8-10% w/v.

cows [7] = conditions: cited from earlier work; remark: listed apart in the source

## C[C@]12CC[C@@H]3c4ccc(O)cc4CC[C@H]3[C@@H]1CC[C@@H]2OC(=O)CCC1CCCC1 [ECP, Estradiol Cypionate]
LH [1]
  time of LH surge after administration: around 40 hours

## CC(C)C[C@H](NC(=O)CNC(=O)[C@H](Cc1ccc(O)cc1)NC(=O)[C@H](CO)NC(=O)[C@H](Cc1c[nH]c2ccccc12)NC(=O)[C@H](Cc1cnc[nH]1)NC(=O)[C@@H]1CCC(=O)N1)C(=O)N[C@@H](CCCNC(=N)N)C(=O)N1CCC[C@H]1C(=O)NCC(N)=O [GnRH]
LH [2]
  duration of GnRH-induced LH surge: 7 to 14 h
  peak serum levels of LH: 9 to 22 ng/mL
Cows [3]; 25 μg of GnRH
  ovulation rate: dramatic reduction in ovulation rates
Cows [3]; 50 μg of GnRH
  ovulation rate: identical ovulation rate to 100 μg

## CN1CCCC1=O [NMP, N-methyl-2-pyrrolidone]
[4]
  pH of NMP: approximately 11.5

## CC(=O)[C@H]1CC[C@H]2[C@@H]3CCC4=CC(=O)CC[C@]4(C)[C@H]3CC[C@]12C [Progesterone]
[5]; pure solvent PEG400
  Solubility of Progesterone: marginal
[5]; pure solvent Propylene Glycol
  Solubility of Progesterone: marginal
[5]; pure solvent Tetraglycol
  Solubility of Progesterone: marginal
[6]
  progesterone amount in NMP+water+phosphoric acid: 8-10 % w/v
Cows [7]; beef cows primed via a used CIDR implant
  average serum progesterone levels: 1.5 ng/mL
Cows [7]; in vivo
  serum Progesterone levels that provide effective biological activity: 1-3 ng/mL
Cows [7]; three days of progesterone treatment
  follicle size: 13.7 mm

Reference: patent US20090036384A1, “INCREASING PREGNANCY RATES” (PARNELL LABORATORIES (AUST) PTY LIMITED, priority 2005, published 2009)
